Reference: US12077503B2, “Substituted cyclic amides and their use as herbicides” (FMC CORPORATION, priority 2015, dated 2024)
Where two headings read alike, the source gives them in different places.

Tests used:
Format in all cases: in vivo
[1] = test system: blackgrass (Alopecurus myosuroides); assay: Test A postemergence; details: Alopecurus myosuroides, post-emergence, 240 h, 125 g ai/ha
Procedure, shortened: (§1)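 Ratings of 0 (no effect) to 100 (complete control) come from visual comparison with untreated controls roughly 10 d after treatment. Test chemicals, formulated in a non-phytotoxic solvent mixture with surfactant, were applied either as a preemergence directed soil spray on seeded soil or postemergence to one- to two-leaf plants 2 to 10 cm tall.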

corn (Zea mays) = assay: Test A postemergence; details: Zea mays, post-emergence, 240 h, 125 g ai/ha; for Corn plant response rating (crop injury, 0 = no effect, 100 = complete kill) at 125 g/ha: Postemergence, visual injury after approximately 10 d, 0 to 100 scale where 0 is no effect and 100 is complete control
Procedure, shortened: as §1

[2] = test system: wheat (Triticum aestivum); assay: Test A postemergence; details: Triticum aestivum, post-emergence, 240 h, 125 g ai/ha
Procedure, shortened: as §1

[3] = test system: barnyardgrass (Echinochloa crus-galli); assay: Test A postemergence; details: Echinochloa crus-galli, post-emergence, 240 h, 125 g ai/ha
Procedure, shortened: as §1

[4] = test system: giant foxtail (Setaria faberii); assay: Test A postemergence; details: Setaria faberi, post-emergence, 240 h, 125 g ai/ha
Procedure, shortened: as §1

[5] = test system: pigweed (Amaranthus retroflexus); assay: Test A postemergence; details: Amaranthus retroflexus, post-emergence, 240 h, 125 g ai/ha
Procedure, shortened: as §1

[6] = test system: Galium (catchweed bedstraw, Galium aparine); assay: Test A postemergence; details: Galium, post-emergence, 240 h, 125 g ai/ha
Procedure, shortened: as §1

Kochia (Kochia scoparia) [7] = assay: Test A postemergence; details: Bassia scoparia, post-emergence, 240 h, 125 g ai/ha
Procedure, shortened: as §1

[8] = test system: ragweed (common ragweed, Ambrosia elatior); assay: Test A postemergence; details: Ambrosia artemisiifolia, post-emergence, 240 h, 125 g ai/ha
Procedure, shortened: as §1

[9] = test system: ryegrass, Italian (Italian ryegrass, Lolium multiflorum); assay: Test A postemergence; details: Lolium multiflorum, post-emergence, 240 h, 125 g ai/ha
Procedure, shortened: as §1

[10] = test system: barnyardgrass (Echinochloa crus-galli); assay: Test A preemergence; details: Echinochloa crus-galli, pre-emergence, 240 h; for pest or weed control at 125 g/ha: 125 g ai/ha, preemergence, 0 to 100 scale where 0 is no effect and 100 is complete control, read-out: Barnyardgrass plant response rating; for pest or weed control at 500 g/ha: 500 g ai/ha, Preemergence, visual injury vs untreated controls after approximately 10 d, read-out: Barnyardgrass plant response rating (0 to 100 scale where 0 is no effect and 100 is complete control)
Procedure, shortened: as §1

[11] = test system: giant foxtail (Setaria faberii); assay: Test A preemergence; details: Setaria faberi, pre-emergence, 240 h; for pest or weed control at 125 g/ha: 125 g ai/ha, preemergence, 0 to 100 scale where 0 is no effect and 100 is complete control, read-out: Foxtail, Giant plant response rating; for pest or weed control at 500 g/ha: 500 g ai/ha, Preemergence, visual injury vs untreated controls after approximately 10 d, read-out: Foxtail, Giant plant response rating (0 to 100 scale where 0 is no effect and 100 is complete control)
Procedure, shortened: as §1

[12] = test system: pigweed (Amaranthus retroflexus); assay: Test A preemergence; details: Amaranthus retroflexus, pre-emergence, 240 h; for pest or weed control at 125 g/ha: 125 g ai/ha, preemergence, 0 to 100 scale where 0 is no effect and 100 is complete control, read-out: Pigweed plant response rating; for pest or weed control at 500 g/ha: 500 g ai/ha, Preemergence, visual injury vs untreated controls after approximately 10 d, read-out: Pigweed plant response rating (0 to 100 scale where 0 is no effect and 100 is complete control)
Kochia (Kochia scoparia) [13] = assay: Test A preemergence; details: Bassia scoparia, pre-emergence, 240 h; for pest or weed control at 500 g/ha: 500 g ai/ha, Preemergence, visual injury vs untreated controls after approximately 10 d, read-out: Kochia plant response rating (0 to 100 scale where 0 is no effect and 100 is complete control); for pest or weed control at 125 g/ha: 125 g ai/ha, preemergence, 0 to 100 scale where 0 is no effect and 100 is complete control, read-out: Kochia plant response rating
Procedure, shortened: as §1

[14] = test system: ragweed (common ragweed, Ambrosia elatior); assay: Test A preemergence; details: Ambrosia artemisiifolia, pre-emergence, 240 h; for pest or weed control at 125 g/ha: 125 g ai/ha, preemergence, 0 to 100 scale where 0 is no effect and 100 is complete control, read-out: Ragweed plant response rating; for pest or weed control at 500 g/ha: 500 g ai/ha, Preemergence, visual injury vs untreated controls after approximately 10 d, read-out: Ragweed plant response rating (0 to 100 scale where 0 is no effect and 100 is complete control)
Procedure, shortened: as §1

[15] = test system: ryegrass, Italian (Italian ryegrass, Lolium multiflorum); assay: Test A preemergence; details: Lolium multiflorum, pre-emergence, 240 h; for pest or weed control at 125 g/ha: 125 g ai/ha, preemergence, 0 to 100 scale where 0 is no effect and 100 is complete control, read-out: Ryegrass, Italian plant response rating; for pest or weed control at 500 g/ha: 500 g ai/ha, Preemergence, visual injury vs untreated controls after approximately 10 d, read-out: Ryegrass, Italian plant response rating (0 to 100 scale where 0 is no effect and 100 is complete control)
Procedure, shortened: as §1

[16] = Postemergence, visual injury after approximately 10 d, 0 to 100 scale where 0 is no effect and 100 is complete control, read-out: Plant response rating, Blackgrass
[17] = Postemergence, visual injury after approximately 10 d, 0 to 100 scale where 0 is no effect and 100 is complete control, read-out: Plant response rating, Wheat
[18] = Postemergence, visual injury after approximately 10 d, 0 to 100 scale where 0 is no effect and 100 is complete control, read-out: Plant response rating, Barnyardgrass
[19] = Postemergence, visual injury after approximately 10 d, 0 to 100 scale where 0 is no effect and 100 is complete control, read-out: Plant response rating, Foxtail, Giant
[20] = Postemergence, visual injury after approximately 10 d, 0 to 100 scale where 0 is no effect and 100 is complete control, read-out: Plant response rating, Pigweed
[21] = Postemergence, visual injury after approximately 10 d, 0 to 100 scale where 0 is no effect and 100 is complete control, read-out: Plant response rating, Galium
[22] = Postemergence, visual injury after approximately 10 d, 0 to 100 scale where 0 is no effect and 100 is complete control, read-out: Plant response rating, Kochia
[23] = Postemergence, visual injury after approximately 10 d, 0 to 100 scale where 0 is no effect and 100 is complete control, read-out: Plant response rating, Ragweed
[24] = Postemergence, visual injury after approximately 10 d, 0 to 100 scale where 0 is no effect and 100 is complete control, read-out: Plant response rating, Ryegrass, Italian

SMILES | pest or weed control at 125 g/ha [10] [%] | pest or weed control at 500 g/ha [10] [%] | pest or weed control at 125 g/ha [11] [%] | pest or weed control at 500 g/ha [11] [%] | pest or weed control at 125 g/ha [12] [%] | pest or weed control at 500 g/ha [12] [%] | pest or weed control at 500 g/ha (Kochia (Kochia scoparia) [13]) [%] | pest or weed control at 125 g/ha [14] [%] | pest or weed control at 500 g/ha [14] [%] | pest or weed control at 125 g/ha [15] [%] | pest or weed control at 500 g/ha [15] [%] | pest or weed control at 125 g/ha [1, 16] [%] | Corn plant response rating (crop injury, 0 = no effect, 100 = complete kill) at 125 g/ha (corn (Zea mays)) [%] | plant injury at 125 g/ha [2, 17] [%] | pest or weed control at 125 g/ha [3, 18] [%] | pest or weed control at 125 g/ha [4, 19] [%] | pest or weed control at 125 g/ha [5, 20] [%] | pest or weed control at 125 g/ha [6, 21] [%] | pest or weed control at 125 g/ha (Kochia (Kochia scoparia) [7]; [22]) [%] | pest or weed control at 125 g/ha [8, 23] [%] | further results
CN1C[C@H](c2cc(F)c(C(F)(F)F)c(F)c2)[C@@H](C(=O)Nc2ccccc2F)C1=O [Compound 899] | 90 | 90 | 90 | 90 | 20 | 40 | 70 | 20 | 60 | 30 | 20 | – | – | – | – | – | – | – | – | – | pest or weed control at 125 g/ha ([1]; postemergence, visual injury rating after approximately 10 d, read-out: Blackgrass plant response rating (0 to 100 scale, 0 no effect, 100 complete control)): 40%; plant injury at 125 g/ha (corn (Zea mays); postemergence, visual injury rating after approximately 10 d, read-out: Corn plant response rating (0 to 100 scale, 0 no effect, 100 complete control)): 40%; plant injury at 125 g/ha ([2]; postemergence, visual injury rating after approximately 10 d, read-out: Wheat plant response rating (0 to 100 scale, 0 no effect, 100 complete control)): 30%; pest or weed control at 125 g/ha ([3]; postemergence, visual injury rating after approximately 10 d, read-out: Barnyardgrass plant response rating (0 to 100 scale, 0 no effect, 100 complete control)): 80%; pest or weed control at 125 g/ha ([4]; postemergence, visual injury rating after approximately 10 d, read-out: Foxtail, Giant plant response rating (0 to 100 scale, 0 no effect, 100 complete control)): 90%; pest or weed control at 125 g/ha ([5]; postemergence, visual injury rating after approximately 10 d, read-out: Pigweed plant response rating (0 to 100 scale, 0 no effect, 100 complete control)): 0%; pest or weed control at 125 g/ha ([6]; postemergence, visual injury rating after approximately 10 d, read-out: Galium plant response rating (0 to 100 scale, 0 no effect, 100 complete control)): 0%; pest or weed control at 125 g/ha (Kochia (Kochia scoparia) [7]; postemergence, visual injury rating after approximately 10 d, read-out: Kochia plant response rating (0 to 100 scale, 0 no effect, 100 complete control)): 0%; pest or weed control at 125 g/ha ([8]; postemergence, visual injury rating after approximately 10 d, read-out: Ragweed plant response rating (0 to 100 scale, 0 no effect, 100 complete control)): 20%; pest or weed control at 125 g/ha ([9]; postemergence, visual injury rating after approximately 10 d, read-out: Ryegrass, Italian plant response rating (0 to 100 scale, 0 no effect, 100 complete control)): 30%
COc1c(F)ccc([C@H]2CNC(=O)[C@@H]2C(=O)Nc2ccccc2S(C)(=O)=O)c1Cl [Compound 916] | 30 | 80 | 70 | 80 | 0 | 20 | 60 | 0 | 70 | 0 | 30 | 0 | 0 | 0 | 30 | 0 | 0 | 30 | 0 | 0 | pest or weed control at 125 g/ha [9, 24]: 0%; pest or weed control at 125 g/ha (Kochia (Kochia scoparia) [13]): 40%
CN1CC[C@H](c2cccc(Cl)c2)[C@@H](C(=O)Nc2ccccc2F)C1=O [Compound 922] | 60 | 80 | 90 | 90 | 0 | 0 | 0 | 0 | 0 | 20 | 40 | 0 | 0 | 0 | 90 | 50 | 0 | 0 | 0 | 0 | pest or weed control at 125 g/ha [9, 24]: 0%; pest or weed control at 125 g/ha (Kochia (Kochia scoparia) [13]): 0%
CN1CC[C@H](c2cccc(Cl)c2)[C@@H](C(=O)Nc2ccccc2S(C)(=O)=O)C1=O [Compound 923] | 0 | 70 | 0 | 70 | 0 | 0 | 0 | 0 | 0 | 0 | 0 | 0 | 0 | 0 | 0 | 0 | 0 | 0 | 0 | 0 | pest or weed control at 125 g/ha [9, 24]: 0%; pest or weed control at 125 g/ha (Kochia (Kochia scoparia) [13]): 0%
